Measurements reported in patent publication US8362047B1, “Anti-cancer agents based on 4-(hetero)Ary1-1,2,5-oxadiazol-3-yl Amino derivatives and a method of making” (U.S. Department of Energy, priority 2010, dated 2013).

Tested on: DU-145 cells
Test: Cell proliferation assay (Alamar-Blue) in DU-145 cells
Assay type: cell-based
Conditions: 72 h; DU-145 human prostate carcinoma cells, 3 days incubation, Alamar-Blue fluorescence
Experimental: Protocol for Cell Proliferation Assay:
This homogeneous assay involves simply adding a single reagent, the Alamar-Blue to the cell culture and measuring the fluorescence intensity (excitation wavelength=530 nm, emission wavelength=590 nm) after an incubation step. The Alamar-Blue reagent utilizes the redox dye resazurin, which is not fluorescent, but upon reduction by metabolically active cells is converted into a highly fluorescent product (resorufin). A decrease in fluorescence in the presence of a test compound indicates reduced proliferation. This change in signal is proportional to the number of viable cells and used as a measure of relative cytotoxicity. Therefore, the fluorescence intensity observed in this assay is a true measure of the viable proliferative cells.
• 2 mM stock of Paclitaxel in DMSO. • DMSO—(dimethylsulfoxide) (Panreac, Cat. number 141954.1611) • Resazurin sodium salt (Sigma, R-7071). 50 mM stock in DMSO. Equipment • Biomek FX Laboratory Automated Workstation (Beckman Coulter Inc., Fullerton, Calif.) • CO2 incubator (VWR Science, USA) • Bright line Hemacytometer (Z359629, Sigma, Ill., USA) Materials • 384-deep well plates (Greiner, No 781270) • 384-well optical bottom tissue culture plates (Greiner, No. 82051-282) Propagation CONDITIONS: 37° C., air 95%; carbon dioxide (CO2) 5%, humidified atmosphere. SUBCULTURING: • Cells were grown in 175 cm^2 flasks to 90-100% of confluency. • Culture media (RPMI-1640 (Paneco, C310)+10% FBS (fetal bovine serum)) was aspirated and cell layer was briefly rinsed with 0.53 mM EDTA solution to remove all traces of serum. • 2 ml of 0.2% trypsin/0.53 mM EDTA (ethylenediaminetetraacetic acid) solution was added to cells. • Flasks were returned to incubator for 5 rain to allow cells detachment • Add 6.0 ml of complete growth medium. • Single cell suspension was created by gently pipetting. • Cells are counted using a Hematocytometer and suspension with desirable cell concentration is prepared.
To test proliferation inhibition DU-145 cells were plated in 384-well plate at the density 4000 cells/well. Next day 4 mM solutions of compounds in DMSO were diluted 100 times in medium and added to cells to final concentration 20 uM (40 ul of cells+40 ul of compounds). Taxol at final concentration 1 uM was used as positive control. Cells were incubated with compounds for 3 days. After that Alamar-Blue was added to cells to a final concentration of 50 uM. After incubation for 4-6 hours at 37° C., fluorescence in plate was read using fluorescence plate reader Wallac 1420 (530 nm excitation filter, 590 nm emission filter). Proliferation inhibition was calculated using formula: % INH=100*((Fnegative−compound signal)/(Fnegative−Fpositive)), • Fnegative—DMSO was added to cells (viable cells) • Fpositive—taxol (1 uM) was added to cells (number of cells at the first day of incubation)

`CCCCn1c(-c2nonc2NC(=O)c2ccccc2Cl)nc2ccccc21` [Example 1, 2-Chloro-N^1-[4-(1-butyl-1H-1,3-benzimidazol-2-yl)-1,2,5-oxadiazol-3-yl]benzamide] and `CC(C)Cn1c(-c2nonc2NC(=O)c2ccccc2Cl)nc2ccccc21` [Example 2, 2-Chloro-N^1-[4-(1-isobutyl-1H-1,3-benzimidazol-2-yl)-1,2,5-oxadiazol-3-yl]benzamide] are within 1.5-fold of each other in IC50: 290 nM for the first, 280 nM for the second.

`C=CCn1c(-c2nonc2NC(=O)c2ccccc2Cl)nc2ccccc21` [Example 3, 2-Chloro-N^1-[4-(1-allyl-1H-1,3-benzimidazol-2-yl)-1,2,5-oxadiazol-3-yl]benzamide] and `CCOc1ccccc1C(=O)Nc1nonc1-c1ccc(OC)cc1` [Example 5, 2-Ethoxy-N^1-[4-(4-methoxyphenyl)-1,2,5-oxadiazol-3-yl]benzamide] are within 1.5-fold of each other in IC50: 890 nM for the first, 980 nM for the second.

Compared with `CCCOc1ccccc1C(=O)Nc1nonc1-c1ccc(OC)cc1` [Example 6, 2-Propoxy-N^1-[4-(4-methoxyphenyl)-1,2,5-oxadiazol-3-yl]benzamide], `CCCOc1ccccc1C(=O)Nc1nonc1-c1ccc(OCC)cc1` [Example 8, 2-Propoxy-N^1-[4-(4-ethoxyphenyl)-1,2,5-oxadiazol-3-yl]benzamide] is 2.5-fold lower in IC50: 850 nM for the first, 340 nM for the second. The second is the more potent here.

Going from `CCOc1ccc(-c2nonc2NC(=O)c2ccccc2OCC)cc1` [Example 7, 2-Ethoxy-N^1-[4-(4-ethoxyphenyl)-1,2,5-oxadiazol-3-yl]benzamide] to `CCCCOc1ccccc1C(=O)Nc1nonc1-c1ccc(OCC)cc1` [Example 9, 2-Butoxy-N^1-[4-(4-ethoxyphenyl)-1,2,5-oxadiazol-3-yl]benzamide], the IC50 rises from 120 nM to 850 nM (7.1-fold). The first is the more potent here.

`CCOc1ccc(-c2nonc2NC(=O)c2ccccc2OCC)cc1C` [Example 10, 2-Ethoxy-N^1-[4-(4-ethoxy-3-methylphenyl)-1,2,5-oxadiazol-3-yl]benzamide] and `CCCOc1ccccc1C(=O)Nc1nonc1-c1ccc(OCC)c(C)c1` [Example 11, 2-Propoxy-N^1-[4-(4-ethoxy-3-methylphenyl)-1,2,5-oxadiazol-3-yl]benzamide] are within 1.5-fold of each other in IC50: 860 nM for the first, 930 nM for the second.

`CCOc1ccc(-c2nonc2NC(=O)c2oc3ccc(Cl)cc3c2C)cc1` [Example 12, 5-chloro-N^2-[4-(4-ethoxyphenyl)-1,2,5-oxadiazol-3-yl]-3-methyl-1-benzofuran-2-carboxamide] showed an IC50 of 950 nM.

Same assay, conditions: DU-145 human prostate carcinoma cells, 3 days incubation, Alamar-Blue fluorescence

Compound `CCOC(=O)Cn1c(-c2nonc2NC(=O)c2ccccc2F)nc2ccccc21` [Example 4, Ethyl 2-(2-4-[(2-fluorobenzoyl)amino]-1,2,5-oxadiazol-3-yl-1H-1,3-benzimidazol-1-yl)acetate] has an IC50 of 320 nM.
